Molecules are shown by their SMILES.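 Test compounds were applied to cells in 96-well plates for 48 hours at 5 doses. At the GI50, growth is halved.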 Calls of active or inactive are those of the source. No stated cut-off is given here; in the data, active = GI50 up to about 1.1 µM and inactive = higher.

Some test systems named below: DU-145; HCT-116; HCT-15; HOP-92; HT-29; Hs-578T; MDA-MB-435; NCI-H23; NCI-H460; NCI-H522; NCI/ADR-RES; RPMI-8226; SF-295; SF-539; SK-MEL-2; SN12C; SR; UACC-62; UO-31; SNB-75.
What all share (assay): growth of human tumour cells (NCI), 48 h

`CN(C)CCCNC(=O)c1cc2/c(=C\c3ccc(N(C)C)cc3)c3ccccc3n2[n+]1C`: the GI50 is > 100 µM (inactive) in the test on DU-145; 26.2 µM (inactive) in the test on HCT-116; more than 100 µM with HCT-15; 22.9 µM (inactive) in the test on HOP-92; 27.5 µM (inactive) in the test with HT-29; > 100 µM (inactive) in the test with Hs-578T. For the same compound, the GI50 is 24.9 µM (inactive) with MDA-MB-435; 21.3 µM (inactive) in the test on NCI-H23; 51.2 µM (inactive) with NCI-H460; 2.64 µM (inactive) in the test with NCI-H522; > 100 µM (inactive) in the test on NCI/ADR-RES; 20.4 µM (inactive) with RPMI-8226. Further, the GI50 in the test on SF-295 is 40.3 µM (inactive); in the test with SF-539, 21.2 µM (inactive); with SK-MEL-2 it was 17.6 µM (inactive); in the test with SN12C, 1.58 µM (inactive); in the test with SR, 23.3 µM (inactive); with UACC-62, 17.3 µM (inactive). Besides, the GI50 with UO-31 was > 100 µM (inactive).
On to `COc1cccc(C2CC(=O)c3cc(N4CCCC4)ccc3N2)c1` (configuration not stated), for which the GI50 is 0.0344 µM (active) in the test on DU-145; 0.0251 µM (active) in the test on HCT-116; 0.0335 µM in the test on HCT-15; 0.348 µM (active) in the test on HOP-92; 0.0211 µM (active) with HT-29; 0.01 µM (active) in the test on Hs-578T. Also, the GI50 is 0.00794 µM (active) in the test with MDA-MB-435; 0.0265 µM (active) with NCI-H23; 0.0402 µM (active) in the test on NCI-H460; 0.0177 µM (active) with NCI-H522; 0.0173 µM (active) in the test with NCI/ADR-RES; 0.0492 µM (active) in the test with RPMI-8226. Also, the GI50 with SF-295 is 0.0358 µM (active); in the test with SF-539, 0.0272 µM (active); with SK-MEL-2 it was 0.0296 µM (active); with SN12C it was 0.0418 µM (active); in the test on SR, 0.0144 µM (active); with UACC-62, 0.0449 µM (active). In addition, the GI50 with UO-31 was 0.0735 µM (active).
Turning to `Cc1cnc2cc(Cl)ccc2c1SCC(=O)O`, the GI50 in the test with DU-145 was > 100 µM (inactive); with HCT-116, > 100 µM (inactive); in the test with HCT-15, more than 100 µM; in the test with HOP-92, > 100 µM (inactive); in the test with HT-29, > 100 µM (inactive); in the test on Hs-578T, 93.5 µM (inactive). The GI50 in the test with MDA-MB-435, in the test on NCI-H23, in the test on NCI-H460, with NCI-H522, with NCI/ADR-RES and in the test with RPMI-8226 was > 100 µM (inactive) in each case. Moreover, the GI50 in the test on SF-295, in the test with SK-MEL-2, in the test with SN12C, in the test with SR, with UACC-62 and in the test on UO-31 was > 100 µM (inactive) each time.
Turning to `CCCc1cc(O)c2c(C)c3[nH]c4ccc(Cl)cc4c3c(C)c2n1`, the GI50 in the test on DU-145 was 6.3 µM (inactive); in the test on HCT-116, 1.63 µM (inactive); with HCT-15, 1.69 µM; in the test with HOP-92 it was 2.31 µM (inactive); with HT-29 it was 1.77 µM (inactive); with Hs-578T, 9.57 µM (inactive). Besides, the GI50 with MDA-MB-435 is 1.6 µM (inactive); in the test on NCI-H23 it was 2.91 µM (inactive); in the test on NCI-H460 it was 1.97 µM (inactive); with NCI-H522, 1.87 µM (inactive); in the test on NCI/ADR-RES, 3.21 µM (inactive); in the test with SF-295, 2.36 µM (inactive). Also, the GI50 is 1.92 µM (inactive) in the test with SF-539; 3.57 µM (inactive) in the test with SK-MEL-2; 2.36 µM (inactive) in the test with SN12C; 2.9 µM (inactive) in the test with SNB-75; 1.88 µM (inactive) with SR; 1.75 µM (inactive) in the test on UO-31.
As for `COc1cc(/C=C2\C(=O)N(Cc3ccccc3)C(c3ccccc3)S2(=O)=O)cc(OC)c1OC` (configuration not stated), the GI50 in the test with DU-145 is 91.6 µM (inactive); in the test with HCT-116, 17.6 µM (inactive); in the test on HCT-15, 27.5 µM; with HOP-92, 50.2 µM (inactive); in the test on HT-29, 51.6 µM (inactive); with Hs-578T, 9.73 µM (inactive). Besides, the GI50 in the test with MDA-MB-435 was 41.9 µM (inactive); in the test with NCI-H23, 33.4 µM (inactive); in the test with NCI-H460, 35.4 µM (inactive); in the test with NCI-H522, 14.2 µM (inactive); in the test with NCI/ADR-RES it was 27.6 µM (inactive); with SF-295, 27 µM (inactive). Further, the GI50 with SK-MEL-2 was 27.1 µM (inactive); in the test with SN12C it was 74 µM (inactive); in the test with SR, 14.3 µM (inactive); in the test on UACC-62, 35.2 µM (inactive); in the test on UO-31, 21.8 µM (inactive).
On to `CC(O)/C=C/C1OC(=O)CC1Nc1ccc(C=O)cc1` (configuration not stated), for which the GI50 in the test with DU-145 was > 100 µM (inactive); in the test with HCT-116 it was > 100 µM (inactive); with HCT-15, 60.7 µM; in the test on HOP-92 it was 15.3 µM (inactive); in the test on HT-29, 41.7 µM (inactive); in the test on Hs-578T it was > 100 µM (inactive). Also, the GI50 with MDA-MB-435 was > 100 µM (inactive); in the test on NCI-H23 it was 59 µM (inactive); in the test on NCI-H460 it was 11.2 µM (inactive); with NCI/ADR-RES, > 100 µM (inactive); with RPMI-8226 it was 24.2 µM (inactive); with SF-295, 28 µM (inactive). For the same compound, the GI50 in the test with SF-539 is 87.1 µM (inactive); with SK-MEL-2, 23.3 µM (inactive); with SN12C it was > 100 µM (inactive); in the test with SNB-75, > 100 µM (inactive); in the test with SR, 23.1 µM (inactive); in the test on UACC-62, 23.7 µM (inactive). Also, the GI50 in the test with UO-31 is 51.2 µM (inactive).
Regarding `CSc1ccc(/C=C2\N=C(c3ccccc3)N(c3nc4cc(Cl)c(F)cc4s3)C2=O)cc1`, the GI50 with DU-145 was 50 µM (inactive); in the test with HCT-116, 36.2 µM (inactive); with HCT-15 it was 76.9 µM; with HOP-92, 42 µM (inactive); with HT-29 it was 49.4 µM (inactive); with Hs-578T, 21.7 µM (inactive). The GI50 in the test with MDA-MB-435 is 33 µM (inactive); with NCI-H460 it was 57.3 µM (inactive); with NCI/ADR-RES it was 32.2 µM (inactive); with RPMI-8226 it was 26.1 µM (inactive); in the test with SF-295, 51.2 µM (inactive); in the test on SF-539, 26.3 µM (inactive). Moreover, the GI50 was 18.2 µM (inactive) with SK-MEL-2; 36.7 µM (inactive) with SN12C; 25 µM (inactive) in the test on SNB-75; 37.4 µM (inactive) in the test on SR; 43.6 µM (inactive) in the test with UACC-62; 55.8 µM (inactive) in the test with UO-31.
`NC[C@H]1Nc2ccccc2[C@@H](O)C1O` (some centres not stated): the GI50 in the test on DU-145 is > 100 µM (inactive); in the test with HCT-116, > 100 µM (inactive); with HCT-15 it was more than 100 µM; in the test on HOP-92, > 100 µM (inactive); in the test on HT-29, > 100 µM (inactive); in the test with Hs-578T, > 100 µM (inactive). The GI50 with MDA-MB-435, in the test on NCI-H23, in the test on NCI-H460, with NCI/ADR-RES, in the test on RPMI-8226 and in the test on SF-295 was > 100 µM (inactive) each time. The GI50 with SF-539, in the test with SK-MEL-2, in the test with SN12C, in the test on SNB-75, in the test on SR and in the test on UACC-62 was > 100 µM (inactive) throughout. Besides, the GI50 in the test with UO-31 was > 100 µM (inactive).
`COc1cccc(CCCNC(=O)Cc2ccccc2CO)c1`: the GI50 was > 100 µM (inactive) in the test with DU-145; > 100 µM (inactive) with HCT-116; more than 100 µM with HCT-15; > 100 µM (inactive) in the test on HOP-92; > 100 µM (inactive) in the test with HT-29; > 100 µM (inactive) in the test on Hs-578T. Further, the GI50 in the test on MDA-MB-435, in the test with NCI-H23, in the test on NCI-H460, with NCI/ADR-RES, with SF-295 and with SF-539 was > 100 µM (inactive) each time. Also, the GI50 in the test on SK-MEL-2, in the test on SN12C, in the test on SNB-75, with SR, in the test on UACC-62 and in the test with UO-31 was > 100 µM (inactive) throughout.
Turning to `CC(CCc1nc2ccccc2s1)(c1ccc(O)cc1)c1ccc(O)cc1`, the GI50 with DU-145 is 17.1 µM (inactive); in the test on HCT-116 it was 18.2 µM (inactive); in the test with HCT-15 it was 18.4 µM; in the test with HOP-92, 20.1 µM (inactive); in the test on HT-29, 20.1 µM (inactive); in the test with Hs-578T, 20.4 µM (inactive). Moreover, the GI50 with MDA-MB-435 is 16.1 µM (inactive); in the test on NCI-H23 it was 17.6 µM (inactive); with NCI-H460 it was 16.4 µM (inactive); in the test on NCI-H522, 15 µM (inactive); with NCI/ADR-RES it was 25.4 µM (inactive); in the test on SF-295, 15.6 µM (inactive). Also, the GI50 with SK-MEL-2 is 17 µM (inactive); in the test with SN12C, 17.9 µM (inactive); with SNB-75 it was 18.4 µM (inactive); in the test with SR it was 13.6 µM (inactive); in the test on UACC-62, 15.9 µM (inactive); in the test on UO-31, 16.1 µM (inactive).
Regarding `CNC(=O)OCC1=C(COC(=O)NC)C(C)N(c2ccccc2)C1` (configuration not stated), the GI50 was 54.5 µM (inactive) with DU-145; 39.9 µM (inactive) with HCT-116; 31 µM with HCT-15; 28.8 µM (inactive) in the test with HOP-92; 22.6 µM (inactive) in the test on HT-29; 43.4 µM (inactive) in the test on Hs-578T. In addition, the GI50 in the test on MDA-MB-435 is 38.3 µM (inactive); in the test with NCI-H23, 38.1 µM (inactive); with NCI-H460, 29 µM (inactive); with NCI/ADR-RES it was 46.5 µM (inactive); with RPMI-8226, 24.6 µM (inactive); in the test on SF-295, 33.7 µM (inactive). The GI50 in the test on SF-539 is 23.3 µM (inactive); in the test with SK-MEL-2, 22.6 µM (inactive); in the test with SN12C it was 72.9 µM (inactive); in the test on SNB-75, 39.4 µM (inactive); in the test on SR, 24.5 µM (inactive); in the test with UACC-62, 26.2 µM (inactive). For the same compound, in the test on UO-31, the GI50 is 22.9 µM (inactive).
